# From US20260108546A1 (ELI LILLY AND COMPANY, priority 2024, published 2026)
# Counter-ions that a name gives are not always drawn.
# Target: T1, hGIP-R (Homo sapiens, UniProt P48546)
# T1 construct: expressed in transfected cells; host or cells: HEK-293 clonal cell lines
# T1 sequence (P48546 22-466): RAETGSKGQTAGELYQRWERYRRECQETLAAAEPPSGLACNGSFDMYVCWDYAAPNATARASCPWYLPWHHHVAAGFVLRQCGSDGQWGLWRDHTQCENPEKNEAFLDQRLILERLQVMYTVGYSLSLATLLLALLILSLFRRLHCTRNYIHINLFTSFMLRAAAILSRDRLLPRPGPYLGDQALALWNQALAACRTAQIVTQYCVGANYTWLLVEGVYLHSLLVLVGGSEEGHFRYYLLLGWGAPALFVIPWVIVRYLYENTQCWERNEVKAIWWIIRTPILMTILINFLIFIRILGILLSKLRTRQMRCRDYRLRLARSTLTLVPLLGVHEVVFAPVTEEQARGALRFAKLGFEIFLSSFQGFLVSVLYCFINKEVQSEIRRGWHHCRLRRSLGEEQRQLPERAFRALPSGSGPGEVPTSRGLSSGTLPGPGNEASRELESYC
# Experiment: Functional hGIP-R Assay (cAMP formation, HTRF)
# Format: cell-based
# Conditions: for Emax: cAMP efficacy, percent of maximal response to GIP(1-42)OH, 37° C., 0.1% bovine casein, arithmetic mean ± SEM; for EC50: cAMP potency, HEK-293 cells expressing hGIP-R, incubated at 37° C. in the presence of 0.1% bovine casein, geometric mean, read-out: Human GIP-R EC50, nM (SEM, n)
# Method: Functional activity was determined using CAMP formation in HEK-293 clonal cell lines expressing hGIP-R. hGIP-R receptor expressing cells were treated with compound (20 point concentration-response curve in DMSO, 2-fold Labcyte Echo direct dilution, 384 well plate Corning Cat #3570) in DMEM (Gibco Cat #31053) supplemented with 1× GlutaMAX™ (Gibco Cat #35050), 0.1% bovine casein (Sigma C4765-10ML), 250 μM IBMX (3-Isobutyl-1-methylxanthine, Acros Cat #228420010) and 20 mM HEPES (Gibco Cat #15630) in a 20 μL assay volume (final DMSO concentration was 1%). After a 30 min incubation at 37° C., the resulting increase in intracellular cAMP was quantitatively determined using the Revvity CAMP Dynamic 2 HTRF Assay Kit (62AM4PEJ). Briefly, cAMP levels within the cell were detected by adding the cAMP-d2 conjugate in cell lysis buffer (10 μL) followed by the antibody anti-cAMP-Eu^3+-Cryptate, also in cell lysis buffer (10 μL). The resulting competitive assay was incubated for at least 60 min at RT, then detected using a BMG Labtech PHERAstar FSX instrument with excitation at 320 nm and emission at 665 nm and 620 nm. PHERAstar units (emission at 665 nm/620 nm*10,000) are inversely proportional to the amount of cAMP present and were converted to nM cAMP per well using a CAMP standard curve. The amount of cAMP generated (nM) in each well was converted to a percent of the maximal response observed with human GIP (1-42) OH. A relative EC50 value and percent top (Emax) were derived by non-linear regression analysis using the percent maximal response vs. the concentration of compound added, fitted to a four-parameter logistic equation.
SMILES,Emax [%],EC50 [nM]
"[2H]C([2H])([2H])n1cc(C[C@H](C(=O)NC(C)(C)Cn2nc(C(F)(F)F)cc2-c2cnc(C)nc2)N2CC[C@@]3(C[C@@H]3c3ccc(-c4cnc5nc(C)cn5c4)cc3Cl)C2=O)cn1 [Example 152, (R)-2-((1S,3R)-1-(2-Chloro-4-(2-methylimidazo[1,2-a]pyrimidin-6-yl)phenyl)-4-oxo-5-azaspiro[2.4]heptan-5-yl)-N-(2-methyl-1-(5-(2-methylpyrimidin-5-yl)-3-(trifluoromethyl)-1H-pyrazol-1-yl)propan-2-yl)-3-(1-(methyl-d3)-1H-pyrazol-4-yl)propanamide]",87.2 ± 1.03,1.73
"Cn1cc2cc(-c3ccc([C@H]4C[C@@]45CCN([C@H](Cc4cnn(C(F)F)c4)C(=O)NC(C)(C)Cn4nc(C(F)(F)F)cc4-c4cc(F)c(=O)n(C)c4)C5=O)c(F)c3)cnc2n1 (single isomer, unassigned; isomer 1) [Example 99]",69.2 ± 0.431,6.84
"Cn1cc2cc(-c3ccc([C@H]4C[C@@H]4C(=O)N[C@H](Cc4cnc5ncccn45)C(=O)NC(C)(C)Cn4nc(C(F)(F)F)cc4-c4ccc(=O)n(C)c4)cc3)cnc2n1 [Example 62, (1S,2S)-N-((R)-3-(imidazo[1,2-a]pyrimidin-3-yl)-1-((2-methyl-1-(5-(1-methyl-6-oxo-1,6-dihydropyridin-3-yl)-3-(trifluoromethyl)-1H-pyrazol-1-yl)propan-2-yl)amino)-1-oxopropan-2-yl)-2-(4-(2-methyl-2H-pyrazolo[3,4-b]pyridin-5-yl)phenyl) cyclopropane-1-carboxamide]",67.8 ± 10.2,17.5
"[2H]C([2H])([2H])n1cc(C[C@H](C(=O)NC(C)(C)Cn2nc(C(F)(F)F)cc2-c2ccc(C(C)(C)O)nc2)N2CC[C@@]3(C[C@@H]3c3ccc(-c4cnc5nc(COC)cn5c4)nc3C3CC3)C2=O)cn1 [Example 192, (R)-2-((1R,3R)-1-(2-cyclopropyl-6-(2-(methoxymethyl)imidazo[1,2-a]pyrimidin-6-yl)pyridin-3-yl)-4-oxo-5-azaspiro[2.4]heptan-5-yl)-N-(1-(5-(6-(2-hydroxypropan-2-yl)pyridin-3-yl)-3-(trifluoromethyl)-1H-pyrazol-1-yl)-2-methylpropan-2-yl)-3-(1-(methyl-d3)-1H-pyrazol-4-yl)propanamide]",129,0.0409
"[2H]C([2H])([2H])N(C(=O)[C@H]1C[C@@H]1c1ccc(-c2cnc3nn(C)cc3c2)nc1C(F)F)[C@@H](Cc1cnn(C(F)F)c1)C(=O)NC(C)(C)Cn1nc(C(F)(F)F)cc1-c1cc(F)c(=O)n(C)c1 [Example 138, (1S,2S)-N-((S)-3-(1-(Difluoromethyl)-1H-pyrazol-4-yl)-1-((1-(5-(5-fluoro-1-methyl-6-oxo-1,6-dihydropyridin-3-yl)-3-(trifluoromethyl)-1H-pyrazol-1-yl)-2-methylpropan-2-yl)amino)-1-oxopropan-2-yl)-2-(2-(difluoromethyl)-6-(2-methyl-2H-pyrazolo[3,4-b]pyridin-5-yl)pyridin-3-yl)-N-(methyl-d3)cyclopropane-1-carboxamide]",52.3,99.2
"Cn1cc(C[C@@H](NC(=O)[C@H]2C[C@@H]2c2ccc(-c3cnc4nccn4c3)cc2)C(=O)NC(C)(C)Cn2nc(C(F)(F)F)cc2-c2cn[nH]n2)cn1 [Example 27, (1S,2S)-N-((R)-1-((1-(5-(2H-1,2,3-Triazol-4-yl)-3-(trifluoromethyl)-1H-pyrazol-1-yl)-2-methylpropan-2-yl)amino)-3-(1-methyl-1H-pyrazol-4-yl)-1-oxopropan-2-yl)-2-(4-(imidazo[1,2-a]pyrimidin-6-yl)phenyl) cyclopropane-1-carboxamide]",99.3,61.6
"[2H]C([2H])([2H])n1cc(-c2cc(C(F)(F)F)nn2CC(C)(C)NC(=O)[C@@H](Cc2cnn(C(F)F)c2)N2CC[C@@]3(C[C@@H]3c3ccc(-c4cnc5nn(C)cc5c4)cc3)C2=O)cc(F)c1=O [Example 141, (R)-3-(1-(Difluoromethyl)-1H-pyrazol-4-yl)-N-(1-(5-(5-fluoro-1-(methyl-d3)-6-oxo-1,6-dihydropyridin-3-yl)-3-(trifluoromethyl)-1H-pyrazol-1-yl)-2-methylpropan-2-yl)-2-((1R,3R)-1-(4-(2-methyl-2H-pyrazolo[3,4-b]pyridin-5-yl)phenyl)-4-oxo-5-azaspiro[2.4]heptan-5-yl)propanamide]",60.9 ± 5.88,26.2
"Cn1cc2cc(-c3ccc([C@H]4C[C@@]45CCN([C@H](Cc4cnn(C(F)F)c4)C(=O)NC(C)(C)Cn4nc(C(F)(F)F)cc4-c4cccn(CC#N)c4=O)C5=O)cc3)cnc2n1 [Example 123, (R)-N-(1-(5-(1-(Cyanomethyl)-2-oxo-1,2-dihydropyridin-3-yl)-3-(trifluoromethyl)-1H-pyrazol-1-yl)-2-methylpropan-2-yl)-3-(1-(difluoromethyl)-1H-pyrazol-4-yl)-2-((1R,3R)-1-(4-(2-methyl-2H-pyrazolo[3,4-b]pyridin-5-yl)phenyl)-4-oxo-5-azaspiro[2.4]heptan-5-yl)propanamide]",95.7 ± 6.9,18.7
"Cn1cc2cc(-c3ccc(C4CC45CCN([C@H](Cc4cnn(C(F)F)c4)C(=O)NC(C)(C)Cn4nc(C(F)(F)F)cc4-c4ccc(=O)n(C)c4)C5=O)c(C(F)(F)F)n3)cnc2n1 (single isomer, unassigned; isomer 1) [Example 113]",45.5 ± 2.18,1.22
"Cn1cc(C[C@@H](NC(=O)[C@H]2C[C@@H]2c2ccc(-c3cnc4nn(C)cc4c3)cc2)C(=O)NC(C)(C)Cn2nc(C(F)(F)F)cc2-c2cnn3c2CNCC3)cn1 [Example 96, (1S,2S)-N—((R)-1-((2-methyl-1-(5-(4,5,6,7-tetrahydropyrazolo[1,5-a]pyrazin-3-yl)-3-(trifluoromethyl)-1H-pyrazol-1-yl)propan-2-yl)amino)-3-(1-methyl-1H-pyrazol-4-yl)-1-oxopropan-2-yl)-2-(4-(2-methyl-2H-pyrazolo[3,4-b]pyridin-5-yl)phenyl)cyclopropane-1-carboxamide]",104 ± 4.57,169
"Cn1cc(C[C@@H](NC(=O)[C@H]2C[C@@H]2c2ccc(-c3cnc4nn(C)cc4c3)cc2)C(=O)NC(C)(C)Cn2nc(C(F)(F)F)cc2C2CC2)cn1 [Example 21, (1S,2S)-N-((R)-1-((1-(5-Cyclopropyl-3-(trifluoromethyl)-1H-pyrazol-1-yl)-2-methylpropan-2-yl)amino)-3-(1-methyl-1H-pyrazol-4-yl)-1-oxopropan-2-yl)-2-(4-(2-methyl-2H-pyrazolo [3,4-b]pyridin-5-yl)phenyl) cyclopropane-1-carboxamide]",102 ± 1.71,63.4
Cn1cc(-c2cc(C(F)(F)F)nn2CC(C)(C)NC(=O)[C@@H](Cc2cnc3ncccn23)NC(=O)[C@H]2C[C@@H]2c2ccc(-c3cnc4nccn4c3)cc2)cn1 [Example 38],92.1,7.93
"CC(C)(Cn1cc(C(F)(F)F)cn1)NC(=O)[C@@H](Cc1cnc2ncccn12)NC(=O)[C@H]1C[C@@H]1c1ccc(-c2cnc3nc(C4CCC4)cn3c2)cc1 [Example 78, (1S,2S)-2-(4-(2-Cyclobutylimidazo[1,2-a]pyrimidin-6-yl)phenyl)-N-((R)-3-(imidazo[1,2-a]pyrimidin-3-yl)-1-((2-methyl-1-(4-(trifluoromethyl)-1H-pyrazol-1-yl)propan-2-yl)amino)-1-oxopropan-2-yl)cyclopropane-1-carboxamide]",113 ± 18.8,20.3
"[2H]C([2H])([2H])n1cc(C[C@H](C(=O)NC(C)(C)Cn2nc(C(F)(F)F)cc2-c2cnc(C(C)(C)OP(=O)(O)O)nc2)N2CC[C@@]3(C[C@@H]3c3ccc(-c4cnc5nn(C)cc5c4)cc3Cl)C2=O)cn1 [Example 198, 2-(5-(1-(2-((R)-2-((1S,3R)-1-(2-Chloro-4-(2-methyl-2H-pyrazolo[3,4-b]pyridin-5-yl)phenyl)-4-oxo-5-azaspiro[2.4]heptan-5-yl)-3-(1-(methyl-d3)-1H-pyrazol-4-yl)propanamido)-2-methylpropyl)-3-(trifluoromethyl)-1H-pyrazol-5-yl)pyrimidin-2-yl)propan-2-yl dihydrogen phosphate, ammonia salt]",90.3,1.81
